Among the data in patent US9790169B2, “IDO inhibitors” (BRISTOL-MYERS SQUIBB COMPANY, priority 2015, dated 2017) are IC50 values, retold here.

The target in this assay is human IDO1 (Homo sapiens, UniProt P14902). Kind of assay: Assessment of human IDO-1 inhibitory activity in Hela cells (Interferon-gamma stimulated HeLa cells, Ehrlich reagent, absorbance 490 nm). Type of assay: cell-based. More on the design: endogenous in cells; host or cells: HeLa cells stimulated with interferon-gamma. The note with it: Hela Human IDO-1 cellular assay. In outline: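 HeLa cells pre-incubated with compound 1 h at 37 °C, then stimulated with human IFN-γ (10 ng/ml final) or murine IFN-γ (5 ng/ml final) for 18 h. Kynurenine read with Ehrlich reagent at 490 nm after TCA (3%) and 50 °C treatment; IC50 normalized to unstimulated (100%) and IFN-γ-only (0%) wells.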
Chain of human IDO1 (P14902 whole entry): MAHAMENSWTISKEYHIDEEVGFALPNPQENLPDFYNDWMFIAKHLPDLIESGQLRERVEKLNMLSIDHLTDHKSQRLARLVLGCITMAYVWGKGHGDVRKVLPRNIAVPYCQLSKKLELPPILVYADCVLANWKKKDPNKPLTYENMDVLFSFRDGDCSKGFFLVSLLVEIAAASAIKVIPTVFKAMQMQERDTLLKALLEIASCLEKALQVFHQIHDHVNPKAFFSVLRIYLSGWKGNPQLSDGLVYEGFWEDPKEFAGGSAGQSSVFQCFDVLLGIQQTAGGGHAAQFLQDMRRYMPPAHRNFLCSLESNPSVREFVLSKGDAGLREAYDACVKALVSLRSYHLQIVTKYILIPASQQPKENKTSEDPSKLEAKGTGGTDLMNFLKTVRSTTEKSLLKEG

The IC50 is the concentration that gives 50% inhibition. Read a low IC50 as greater potency in that assay. Regarding `CC[C@@H](CC(=O)O)c1ccc(N(CC)C2CCOCC2)c(Nc2ccc(N(C)C)nc2)c1` (single isomer, unassigned) [Example 463], the IC50 is over 50 nM. The figure for `CC[C@@H](CC(=O)O)c1ccc(N(CC)C2CCOCC2)c(Nc2cnc(OC)cn2)c1` (single isomer, unassigned) [Example 464] is under 5 nM; for `CCOc1cnc(Nc2cc([C@@H](CC)CC(=O)O)ccc2N(CC)C2CCOCC2)cn1` (single isomer, unassigned) [Example 465] it is under 5 nM; for `CCOc1ccc(Nc2cc([C@@H](CC)CC(=O)O)ccc2N(CC)C2CCOCC2)cn1` (single isomer, unassigned) [Example 466] it is under 5 nM.

`CCOc1ccc(Nc2cc([C@@H](CC)CC(=O)O)ccc2N(CC)C2CCOCC2)nn1` (single isomer, unassigned) [Example 467] returned an IC50 of under 50 nM. The compound `CC[C@H](CC(=O)O)c1ccc(N(CC)C2CCOCC2)c(Nc2cnc(N(C)C)nc2)c1` (single isomer, unassigned) [Example 502] gave an IC50 of under 50 nM. The figure for `CC[C@H](CC(=O)O)c1ccc(N(CC)C2CCOCC2)c(Nc2ccc(Cl)cn2)c1` (single isomer, unassigned) [Example 503] is under 5 nM; for `CC[C@H](CC(=O)O)c1ccc(N(CC)C2CCOCC2)c(Nc2ccc(OC)cn2)c1` (single isomer, unassigned) [Example 505] it is under 50 nM. The figure for `CC[C@H](CC(=O)O)c1ccc(N(CC)C2CCOCC2)c(Nc2ccc(N(C)C)nc2)c1` (single isomer, unassigned) [Example 506] is over 50 nM; for `CC[C@H](CC(=O)O)c1ccc(N(CC)C2CCOCC2)c(Nc2cnc(OC)cn2)c1` (single isomer, unassigned) [Example 507] it is under 5 nM; for `CCOc1cnc(Nc2cc([C@H](CC)CC(=O)O)ccc2N(CC)C2CCOCC2)cn1` (single isomer, unassigned) [Example 508] it is under 5 nM. Compound `CCOc1ccc(Nc2cc([C@H](CC)CC(=O)O)ccc2N(CC)C2CCOCC2)cn1` (single isomer, unassigned) [Example 509] came in with a half-inhibitory concentration (IC50) of under 5 nM.

Compound `CCOc1ccc(Nc2cc([C@H](CC)CC(=O)O)ccc2N(CC)C2CCOCC2)nn1` (single isomer, unassigned) [Example 510] yielded a half-inhibitory concentration (IC50) of under 5 nM. The compound `CC[C@H](CC(=O)O)c1ccc(N(CC)C2CCOCC2)c(Nc2ccc(S(=O)(=O)CC)cc2)c1` (single isomer, unassigned) [Example 525] showed an IC50 of under 50 nM. Compound `CCCN(c1ccc([C@@H](CC)CC(=O)O)cc1Nc1ccc(OC)nc1)C1CCOCC1` (single isomer, unassigned) [Example 542] registered an IC50 of under 5 nM.

`CCCN(c1ccc([C@@H](CC)CC(=O)O)cc1NC(=O)Nc1ccc(Cl)cc1F)C1CCOCC1` (single isomer, unassigned) [Example 544] registered an IC50 of under 5 nM.

As for `CCCN(c1ccc([C@@H](CC)CC(=O)O)cc1NC(=O)Nc1ccc(C#N)cc1)C1CCOCC1` (single isomer, unassigned) [Example 545], the IC50 is under 50 nM. The figure for `CCCN(c1ccc([C@H](CC)CC(=O)O)cc1Nc1cnc(OCC)nc1)C1CCOCC1` (single isomer, unassigned) [Example 546] is under 5 nM.

Compound `CCCN(c1ccc([C@H](CC)CC(=O)O)cc1Nc1ccc(C#N)cc1)C1CCOCC1` (single isomer, unassigned) [Example 547] yielded an IC50 of under 5 nM. The figure for `CCCN(c1ccc([C@H](CC)CC(=O)O)cc1Nc1ccc2nc(C)sc2c1)C1CCOCC1` (single isomer, unassigned) [Example 548] is under 50 nM; for `CCCN(c1ccc([C@H](CC)CC(=O)O)cc1Nc1ccc(F)cc1)C1CCOCC1` (single isomer, unassigned) [Example 549] it is under 5 nM; for `CCCN(c1ccc([C@H](CC)CC(=O)O)cc1Nc1ccc2c(c1)OC(F)(F)O2)C1CCOCC1` (single isomer, unassigned) [Example 550] it is under 5 nM. The figure for `CCCN(c1ccc([C@H](CC)CC(=O)O)cc1Nc1cnc(OC)nc1)C1CCOCC1` (single isomer, unassigned) [Example 551] is under 5 nM; for `CCCN(c1ccc([C@H](CC)CC(=O)O)cc1Nc1ccc(Cl)cc1)C1CCOCC1` (single isomer, unassigned) [Example 552] it is under 5 nM. Then `CCCN(c1ccc([C@H](CC)CC(=O)O)cc1Nc1ccc(OC)nc1)C1CCOCC1` (single isomer, unassigned) [Example 553], with under 5 nM. As to `CCCN(c1ccc([C@H](CC)CC(=O)O)cc1Nc1cnc(OCC2CC2)nc1)C1CCOCC1` (single isomer, unassigned) [Example 554], the IC50 was under 5 nM. On to `CCCN(c1ccc([C@H](CC)CC(=O)O)cc1NC(=O)Nc1ccc(Cl)cc1F)C1CCOCC1` (single isomer, unassigned) [Example 555], for which the 50% inhibitory concentration (IC50) was under 5 nM.

On to `CCCN(c1ccc([C@H](CC)CC(=O)O)cc1NC(=O)Nc1ccc(C#N)cc1)C1CCOCC1` (single isomer, unassigned) [Example 556], for which the IC50 was under 50 nM. Then `CCCN(c1ccc(C(CC)CC(=O)O)cc1NC(=O)Nc1ccc(C)cc1)C1CCOCC1` (single isomer, unassigned) [Example 557 Enantiomer 1, 3-(4-(Propyl(tetrahydro-2H-pyran-4-yl)amino)-3-(3-(p-tolyl)ureido)phenyl)pentanoic acid], with under 50 nM; and `CCCN(c1ccc(C(CC)CC(=O)O)cc1NC(=O)Nc1ccc(C)cc1)C1CCOCC1` (single isomer, unassigned) [Example 557 Enantiomer 2, 3-(4-(Propyl(tetrahydro-2H-pyran-4-yl)amino)-3-(3-(p-tolyl)ureido)phenyl)pentanoic acid], with under 5 nM. The figure for `CCCN(c1ccc([C@@H](COC)CC(=O)O)cc1Nc1ccc(C#N)cc1)C1CCOCC1` (single isomer, unassigned) [Example 558] is under 5 nM; for `CCCN(c1ccc([C@@H](COC)CC(=O)O)cc1Nc1cnc(OCC)nc1)C1CCOCC1` (single isomer, unassigned) [Example 559] it is under 50 nM. The figure for `CCCN(c1ccc([C@@H](COC)CC(=O)O)cc1Nc1ccc(OC)nc1)C1CCOCC1` (single isomer, unassigned) [Example 565] is under 50 nM. As to `CCCN(c1ccc([C@@H](COC)CC(=O)O)cc1NC(=O)Nc1ccc(Cl)cc1F)C1CCOCC1` (single isomer, unassigned) [Example 566], the IC50 is under 50 nM. Then `CCCN(c1ccc([C@@H](COC)CC(=O)O)cc1NC(=O)Nc1ccc(C#N)cc1)C1CCOCC1` (single isomer, unassigned) [Example 567], with under 50 nM; and `CCCN(c1ccc([C@H](COC)CC(=O)O)cc1Nc1ccc(C#N)cc1)C1CCOCC1` (single isomer, unassigned) [Example 568], with under 5 nM. Regarding `CCCN(c1ccc([C@H](COC)CC(=O)O)cc1Nc1ccc2nc(C)sc2c1)C1CCOCC1` (single isomer, unassigned) [Example 570], the 50% inhibitory concentration (IC50) is under 50 nM. Turning to `CCCN(c1ccc(C(COC)CC(=O)O)cc1Nc1ccc2c(c1)OC(F)(F)O2)C1CCOCC1` (single isomer, unassigned) [Example 571, 3-(3-((2,2-difluorobenzo[d][1,3]dioxol-5-yl)amino)-4-(propyl (tetrahydro-2H-pyran-4-yl)amino)phenyl)-4-methoxybutanoic acid], the IC50 was under 5 nM.

Compound `CCCN(c1ccc([C@H](COC)CC(=O)O)cc1Nc1ccc(F)cc1)C1CCOCC1` (single isomer, unassigned) [Example 572] registered an IC50 of under 50 nM. Then `CCCN(c1ccc([C@H](COC)CC(=O)O)cc1Nc1cnc(OCC2CC2)nc1)C1CCOCC1` (single isomer, unassigned) [Example 573], with under 50 nM; and `CCCN(c1ccc([C@H](COC)CC(=O)O)cc1Nc1ccc(Cl)cc1)C1CCOCC1` (single isomer, unassigned) [Example 574], with under 5 nM. Then `CCCN(c1ccc([C@H](COC)CC(=O)O)cc1Nc1ccc(OC)nc1)C1CCOCC1` (single isomer, unassigned) [Example 575], with under 50 nM; and `CCCN(c1ccc([C@H](COC)CC(=O)O)cc1NC(=O)Nc1ccc(Cl)cc1F)C1CCOCC1` (single isomer, unassigned) [Example 576], with under 50 nM.

With `CCCN(c1ccc([C@H](COC)CC(=O)O)cc1NC(=O)Nc1ccc(C#N)cc1)C1CCOCC1` (single isomer, unassigned) [Example 577], the concentration for half-maximal inhibition (IC50) is over 50 nM. Then `CCN(c1ccc([C@@H](CC(=O)O)C(F)(F)F)cc1Nc1cnc(OC)nc1)C1CCOCC1` (single isomer, unassigned) [Example 601], with under 5 nM.

For the compound `COCC(CC(=O)O)c1ccc(N2C[C@@H](C)O[C@@H](C)C2)c(Nc2ccc(Cl)cc2)c1` (single isomer, unassigned) [Example 603], the 50% inhibitory concentration (IC50) is over 50 nM. Then `COCC(CC(=O)O)c1ccc(N2C[C@@H](C)O[C@@H](C)C2)c(NC(=O)Nc2ccc(C#N)cc2)c1` (single isomer, unassigned) [Example 605 Diastereomer 1], with over 50 nM; and `COCC(CC(=O)O)c1ccc(N2C[C@@H](C)O[C@@H](C)C2)c(NC(=O)Nc2ccc(Cl)cc2F)c1` (single isomer, unassigned) [Example 606], with over 50 nM.

Regarding `CCN(c1ccc(C(C)CC(=O)O)cc1Nc1cnc(OC)nc1)C1CCOCC1` (single isomer, unassigned) [Example 620, 3-(4-(ethyl(tetrahydro-2H-pyran-4-yl)amino)-3-((2-methoxypyrimidin-5-yl)amino)phenyl)butanoic acid], the IC50 is under 50 nM.
